One molecule from US9119882B2, “Volatile distillate by-product of mint oil that promotes absorption and/or bioavailability of compounds of bio-medical and nutritional interest” (Flavor Liquidating (G) Corporation (new name of A.M. Todd …, priority 2008, dated 2015) can be followed below.

The series has as its system Caco-2 cells. The series can be described thus: Pilot study: uptake of CoQ10 into Caco-2 cells. The series is classed as in vitro ADME, human. The following applies: 1 millimolar CoQ10, two hours, control set at 100%. The procedure: An initial pilot study established that VDMO improved the uptake of CoQ10 into Caco-2 cells. Caco-2 cells were grown for 15 days in the bottom of 24-well plastic culture dishes and then were exposed to 1 millimolar concentrations of CoQ10 mixed with 5%, 1% or no VDMO. The VDMO utilized here was as analyzed in Table 3b. Cells were returned to the incubator for two hours, then cells and media were separated by centrifugation. The cellular fraction was washed and centrifuged a second time and the amount of CoQ10 inside the cells was determined by Liquid Chromatography Mass Spectrometry. The experiment was repeated twice; the absorption in the control group was set to 100% and treatments were compared accordingly; results are shown in Table 4.

For `COC1=C(OC)C(=O)C(C/C=C(\C)CC/C=C(\C)CC/C=C(\C)CC/C=C(\C)CC/C=C(\C)CC/C=C(\C)CC/C=C(\C)CC/C=C(\C)CC/C=C(\C)CCC=C(C)C)=C(C)C1=O` [CoQ10 + no VDMO; Control, Coenzyme Q10 (ubiquinone; CoQ10)], the “Absorption (%) Experiment 1” value is on record as 100 ± 6.1% and the “Absorption (%) Experiment 2” value worked out at 100 ± 0.3%.
